Tests used:
[1] = tested on: imiquimod-induced dermatitis; settings: for Ear thickness, Mean ± SEM: imiquimod-treated mice; for Ear thickness, Mean ± SEM / PASI Score, Mean ± SEM: topical ointment 0.06% active drug (dexamethasone 0.03%, tacrolimus 0.1%); for PASI Score, Mean ± SEM: scale 0-12
Method: Topical imiquimod (IMQ), a toll-like receptor agonist, has been established as a model of Inflammatory skin diseases including psoriasis and atopic dermatitis. Dermal inflammatory changes and gene expression in mice treated with topical imiquimod mimic human psoriasis and dermatitis (van der Fits et al., 2009; Swindell et al., 2011). The effect of a set of compounds of the invention were tested in a mouse model of imiquimod-induced dermatitis, with topical tacrolimus and dexamethasone as comparators for assessing safety and efficacy relative to standard agents used to treat dermatitis in humans.
Commercial 0.1% tacrolimus ointment (ProTopic™[…]) was also used as an active comparator. Petrolatum containing 10% ethanol was used as a control treatment.
Female Balb/C mice (8 weeks old) were randomized and divided into groups of 5 animals each. Polyethylene collars were affixed to the mice to prevent them from easily scratching their ears. 5% imiquimod was applied to both ears of each mouse (20 microliters per ear) daily for 5 days, and then every other day for the full duration of the study. […] On day 7 after initiation of imiquimod, treatment with topical agents was started. Both ears of each mouse were treated with test ointments, with one compound per mouse.
Ear thickness and PASI assessments (Psoriasis Area and Severity Index, a standard psoriasis scoring system) were recorded twice per week throughout the study. The PASI score comprises the sum of evaluations of swelling, erythema and scaling on scales from 0 to 4; the maximum PASI score is 12, and the minimum, in unaffected skin, is 0).

[2] = tested on: PC3 human prostate cancer cells; test: Example S: in vitro anticancer screen, PC-3 cells, Wst1; assay type: cell-based; settings: Homo sapiens, PC-3, approximately 20 hours, Wst1, read-out: PC-3, percent of cancer cell survival relative to vehicle treated cells
Outline: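 PC-3 cells, 2×10^4 cells/well, exposed ~20 h to vehicle or compound at 0.4, 0.5 or 2.5 μM as specified per compound. Wst1 dye added for 2 h; absorbance 450 nm (reference 630 nm), triplicates. Values are percent cell survival versus vehicle-treated cells.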

[3] = tested on: 4T1 murine breast cancer cells; test: Example S: in vitro anticancer screen, 4T1 cells, Wst1; assay type: cell-based, mouse; settings: Mus musculus, 4T1, 18 h, 18 hr, Wst1; for viability at 1 µM: read-out: 4T1 1 μM, percent of cancer cell survival relative to vehicle treated cells; for viability at 5 µM: read-out: 4T1 5 μM, percent of cancer cell survival relative to vehicle treated cells
Outline: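 4T1 cells seeded at 1×10^4/well were exposed to compound at 1 μM or 5 μM for 18 hr after plating. Wst1 tetrazolium dye was then added for about 2 hr and absorbance read at 450 nm (reference 630 nm). Values are percent survival relative to vehicle-treated cells.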

THP-1 cells [4] = test: Example D: LPS-triggered THP-1 cell death assay, acute/5-hour and chronic/48-hour; assay type: cell-based, Human; settings: for Viable cell percent change, Chronic/48-hour, Mean: 10 ng/ml LPS, 0.1 μM test compound; for activity relative to AC in the LPS-triggered THP-1 cell death assay, in words: 0.1 μM, 5-hour and 48-hour time points
Method: Compounds of the invention were tested at 0.1 μM versus AC in the LPS-triggered THP-1 cell death assay. Both acute/5-hour and chronic/48-hour phases of cell death were assessed. Compounds were screened in batches with DMSO as the negative control and AC as the high activity control.

[5] = tested on: PC-3 prostate cancer cells; test: Example T: sensitisation of PC-3 cells to doxorubicin, oxaliplatin, paclitaxel or vincristine, Wst1; assay type: cell-based, human; settings: PC-3 cells, 72 hours; for Doxorubicin 3.5 μM: percent cell survival / Oxaliplatin 100 μM: percent cell survival / Paclitaxel 50 μM: percent cell survival / Vincristine 100 nM: percent cell survival: chemotherapy agent alone normalized to 100%; for viability at 0.4 µM: compound 0.4 μM alone
THP-1 cells [6] = test: Example C: compound screen, viable THP-1 cell count after 5 hours +/- LPS; assay type: cell-based, Human; settings: for ability to inactivate pro-inflammatory THP-1 cells, in words (relative to benchmark AC): LPS-treated THP-1 cells
Excerpt: Background: THP-1 is a human acute myeloid leukemia (AML) cell line that can be induced into a macrophage-like cell with vitamin-D3 (vit-D3). In the macrophage, LPS (lipopolysaccharide; endotoxin) stimulation of toll-like receptor 4 (TLR-4) leads to NF-κB activation and secretion of inflammatory cytokines but also the priming of programmed death pathways through RIP and Caspase 8. The balance of this complex regulatory network is dependent on highly specific kinases, enzymes that require ATP. Disruption of either cytosolic pH or ATP availability/energy level uncouples this control network and the can macrophage shift away from production of inflammatory cytokines towards a programmed death event, which has the net effect of limiting inflammatory damage.

[7] = Homo sapiens, Wst1, vehicle = 100, read-out: No Chemo: percent cell survival
[8] = compound 0.4 μM + doxorubicin 3.5 μM
[9] = compound 0.4 μM + oxaliplatin 100 μM
[10] = compound 0.4 μM + paclitaxel 50 μM
[11] = compound 0.4 μM + vincristine 100 nM

D BW ([1]; mouse, in vivo) | Structure (SMILES) | Ear thickness, Mean ± SEM [1] | Body Weight (mean ± SEM), Final ([1]; mouse, in vivo) | Body Weight (mean ± SEM), Initial ([1]; mouse, in vivo) | PASI Score, Mean ± SEM [1] | viability at 1 µM [3] | viability at 5 µM [3] | Viable cell percent change, Chronic/48-hour, Mean (THP-1 cells [4]) | Reduction in viable THP-1 cell count (percent change) from 0 hours, Mean ± SE (THP-1 cells [6]; Compound (0.1 μM), No LPS) | Reduction in viable THP-1 cell count (percent change) from 0 hours, Mean ± SE (THP-1 cells [6]; Compound (0.1 μM), Plus LPS) | Reduction in viable THP-1 cell count (percent change) from 0 hours, Mean ± SE (THP-1 cells [6]; Compound (1.0 μM), No LPS) | Reduction in viable THP-1 cell count (percent change) from 0 hours, Mean ± SE (THP-1 cells [6]; Compound (1.0 μM), Plus LPS) | ability to inactivate pro-inflammatory THP-1 cells, in words (relative to benchmark AC) (THP-1 cells [6]) | viability at 0.4 µM [2] | activity relative to AC in the LPS-triggered THP-1 cell death assay, in words (THP-1 cells [4]) | viability at 0.4 µM [5, 7] | Doxorubicin 3.5 μM: percent cell survival [5, 8] | Oxaliplatin 100 μM: percent cell survival [5, 9] | Paclitaxel 50 μM: percent cell survival [5, 10] | Vincristine 100 nM: percent cell survival [5, 11] | other results
-0.1 g | c1ccc(Oc2cccc(Nc3ccnc4ccccc34)c2)cc1 [DE, N-(3-Phenoxyphenyl)quinolin-4-amine] | 0.593 ± 0.016 | 20.5 ± 0.5 g | 20.6 ± 0.5 g | 7.250 ± 0.183 | 60.1% | 28.6% | 25.65% |  |  |  |  |  |  |  |  |  |  |  |  | viability at 2.5 µM ([2]; 2.5 μM): 42%; viability at 2.5 µM ([5]; Homo sapiens, compound 2.5 μM alone, Wst1, vehicle = 100, read-out: No Chemo: percent cell survival): 42%; Doxorubicin 3.5 μM: percent cell survival ([5]; compound 2.5 μM + doxorubicin 3.5 μM): 69.3%; Oxaliplatin 100 μM: percent cell survival ([5]; compound 2.5 μM + oxaliplatin 100 μM): 84.7%; Paclitaxel 50 μM: percent cell survival ([5]; compound 2.5 μM + paclitaxel 50 μM): 68.6%; Vincristine 100 nM: percent cell survival ([5]; compound 2.5 μM + vincristine 100 nM): 74%
-0.2 g | c1ccc(Oc2ccc(Nc3ccnc4ccccc34)cc2)cc1 [DD, N-(4-Phenoxyphenyl)quinolin-4-amine] | 0.589 ± 0.018 | 20.7 ± 0.6 g | 20.9 ± 0.8 g | 7.450 ± 0.322 | 97.4% | 104% | 44.34% |  |  |  |  |  |  |  |  |  |  |  |  | 
 | CCCCCCCCCCOc1cccc(CNc2ccnc3ccccc23)c1 [DU, N-[3-(Decyloxy)benzyl]quinolin-4-amine] | 0.607 ± 0.027 | 20.9 ± 0.5 g | 20.4 ± 0.7 g | 7.975 ± 0.621 |  |  | 17.10% |  |  |  |  |  |  |  |  |  |  |  |  | D BW (g) ([1]; mouse, in vivo): +0.5 g
 | COCCCCCCCCNc1ccnc2ccccc12 [CJ, N-(8-Methoxyoctyl)quinolin-4-amine] |  |  |  |  | 22.6% | 24.1% | 15.44% | −5.53 ± 3.89% | −30.15 ± 4.41% | −6.99 ± 1.55% | −41.62 ± 1.80% | higher activity than the active benchmark compound AC | 53.7% | more active than AC at the chronic/48-hour time point | 53.7% | 18.9% | 19.7% | 51.7% | 16.9% | 
-0.2 g | O=C(NCCCCCCCCNc1ccnc2ccccc12)c1cccnc1 [EF, N-[8-(Quinolin-4-ylamino)octyl]nicotinamide] | 0.613 ± 0.010 | 21.3 ± 0.2 g | 21.5 ± 0.6 g | 7.275 ± 0.199 | 15.6% | 23.7% |  |  |  |  |  |  | 16.7% |  | 16.7% | 31.3% | 21.7% | 24.3% | 23.4% | 
 | COc1ccc(OCCCCCCNc2ccnc3ccccc23)cc1 [Compound CX, N-[6-(4-Methoxyphenoxy)hexyl]quinolin-4-amine] |  |  |  |  | 25.1% | 20.7% | 8.50% | −8.00 ± 1.41% | −38.09 ± 0.41% | −9.20 ± 3.09% | −49.57 ± 2.44% | higher activity than the active benchmark compound AC | 45.9% | more active than AC at the chronic/48-hour time point | 45.9% | 21.7% | 22.2% | 48.2% | 38.1% | 

Reference: patent US20250034139A1, “AMINE COMPOUNDS HAVING ANTI-INFLAMMATORY, ANTIFUNGAL, ANTIPARASITIC, AND ANTICANCER ACTIVITY” (PHARMA CINQ, LLC, priority 2013, published 2025)
